Data from publication PMC4037836 (British Journal of Cancer, 2014).

Experiments:
CYP2C8 = type: in vivo, human; details: increase in paclitaxel AUC and Cmax less than two-fold in the presence of pazopanib and lapatinib
CYP3A4 = type: in vivo, human; details: increase in paclitaxel AUC and Cmax less than two-fold in the presence of pazopanib and lapatinib
[1] = pazopanib and lapatinib combination, daily; ref de Jonge et al, 2013; cited from earlier work
[2] = Plasma pharmacokinetics of paclitaxel, pazopanib and lapatinib in cycle 1; type: in vivo, human; details: for AUC(0-t) / Cmax / half-life / AUC(0-inf): human, plasma; for AUC(0-t): Lapatinib AUC(0–24)
[3] = pazopanib in combination with paclitaxel; ref Tan et al, 2010; cited from earlier work
[4] = day 15 of cycle 1, paclitaxel 80 mg m^−2, pazopanib 400 mg, lapatinib 1000 mg, n=9, geometric mean (95% confidence interval)
[5] = patients receiving pazopanib 400 mg, lapatinib 1000 mg
[6] = day 15 of cycle 1, paclitaxel 50 mg m^−2, pazopanib 400 mg, lapatinib 1000 mg, n=6, geometric mean (95% confidence interval)
[7] = day 15 of cycle 1, paclitaxel 50 mg m^−2, pazopanib 800 mg, lapatinib 1000 mg, n=3, median (range)
[8] = day 15 of cycle 1, paclitaxel 80 mg m^−2, pazopanib 800 mg, lapatinib 1000 mg, n=1, individual value

Molecule: CS(=O)(=O)CCNCc1ccc(-c2ccc3ncnc(Nc4ccc(OCc5cccc(F)c5)c(Cl)c4)c3c2)o1 [lapatinib]
- Inhibition of CYP2C8 (classification) (CYP2C8): weak inhibitors
- Inhibition of CYP3A4 (classification) (CYP3A4): weak inhibitors
- Recommended phase II dosing [1]: 1500 mg
- Lapatinib Cmax [2, 4]: 1.95 (1.13, 3.37) μg ml^−1
- AUC(0-t) ([2]; oral, day 15 of cycle 1, paclitaxel 50 mg m^−2, pazopanib 400 mg, lapatinib 1000 mg, n=6, geometric mean (95% confidence interval)): 20 µg·h/mL
- AUC(0-t) ([2]; oral, day 15 of cycle 1, paclitaxel 50 mg m^−2, pazopanib 800 mg, lapatinib 1000 mg, n=3, median (range)): 51.4 µg·h/mL
- AUC(0-t) ([2]; oral, day 15 of cycle 1, paclitaxel 80 mg m^−2, pazopanib 400 mg, lapatinib 1000 mg, n=9, geometric mean (95% confidence interval)): 27.1 µg·h/mL
- AUC(0-t) ([2]; oral, day 15 of cycle 1, paclitaxel 80 mg m^−2, pazopanib 800 mg, lapatinib 1000 mg, n=1, individual value): 11.6 µg·h/mL
- Cmax ([2]; oral, Lapatinib Cmax, day 15 of cycle 1, paclitaxel 50 mg m^−2, pazopanib 400 mg, lapatinib 1000 mg, n=6, geometric mean (95% confidence interval)): 1270 ng/mL
- Increase in AUC0–24 of lapatinib on increasing paclitaxel from 50 to 80 mg m^−2 [2, 5]: 1.4 fold
- Increase in Cmax of lapatinib on increasing paclitaxel from 50 to 80 mg m^−2 [2, 5]: 1.5 fold

Molecule: CC(=O)O[C@H]1C(=O)[C@@]2(C)[C@H]([C@H](OC(=O)c3ccccc3)[C@]3(O)C[C@H](OC(=O)[C@H](O)[C@@H](NC(=O)c4ccccc4)c4ccccc4)C(C)=C1C3(C)C)[C@]1(OC(C)=O)CO[C@@H]1C[C@@H]2O [paclitaxel]
- Increase in Cmax of paclitaxel relative to paclitaxel alone [3]: 36%
- Increase in geometric mean AUC of paclitaxel relative to paclitaxel alone [3]: 26%
- Paclitaxel CL ([2]; day 15, 50 mg m^−2 paclitaxel+400 mg pazopanib+1000 mg lapatinib, n=4, geometric mean (95% confidence interval)): 16.3 (14.8, 17.9) l h^−1 m^−2
- Paclitaxel CL ([2]; day 15, 50 mg m^−2 paclitaxel+800 mg pazopanib+1000 mg lapatinib, n=3, median (range)): 16.3 (14.9, 20.3) l h^−1 m^−2
- Paclitaxel CL ([2]; day 15, 80 mg m^−2 paclitaxel+400 mg pazopanib+1000 mg lapatinib (MTR), n=9, geometric mean (95% confidence interval)): 15.3 (13.2, 17.8) l h^−1 m^−2
- Paclitaxel CL ([2]; day 15, 80 mg m^−2 paclitaxel+800 mg pazopanib+1000 mg lapatinib, n=1, individual value): 18.3 l h^−1 m^−2
- half-life ([2]; intravenous): 14.8 h
- AUC(0-inf) ([2]; intravenous, 50 mg m^−2): 2.15 µg·h/mL
- Cmax ([2]; intravenous, 50 mg m^−2): 1440 ng/mL
- half-life ([2]; intravenous, 50 mg m^−2): 11.7 h
- Cmax ([2]; intravenous, 50 mg m^−2, Paclitaxel Cmax, day 1 (pazopanib and lapatinib withheld), 50 mg m^−2 paclitaxel+800 mg pazopanib+1000 mg lapatinib, n=3, median (range)): 1270 ng/mL
- AUC(0-inf) ([2]; intravenous, 80 mg m^−2): 3.82 µg·h/mL
- Cmax ([2]; intravenous, 80 mg m^−2): 2290 ng/mL
- Cmax ([2]; intravenous, 80 mg m^−2, Paclitaxel Cmax, day 1 (pazopanib and lapatinib withheld), 80 mg m^−2 paclitaxel+800 mg pazopanib+1000 mg lapatinib, n=3, median (range)): 3320 ng/mL
- AUC(0-inf) ([2]; intravenous, Paclitaxel AUC(0-∞), day 15, 50 mg m^−2 paclitaxel+800 mg pazopanib+1000 mg lapatinib, n=3, median (range)): 3.06 µg·h/mL
- AUC(0-inf) ([2]; intravenous, Paclitaxel AUC(0-∞), day 15, 80 mg m^−2 paclitaxel+400 mg pazopanib+1000 mg lapatinib (MTR), n=9, geometric mean (95% confidence interval)): 5.23 µg·h/mL
- AUC(0-inf) ([2]; intravenous, Paclitaxel AUC(0–∞), day 15, 50 mg m^−2 paclitaxel+400 mg pazopanib+1000 mg lapatinib, n=4, geometric mean (95% confidence interval)): 3.07 µg·h/mL
- AUC(0-inf) ([2]; intravenous, Paclitaxel AUC(0–∞), day 15, 80 mg m^−2 paclitaxel+800 mg pazopanib+1000 mg lapatinib, n=1, individual value): 4.37 µg·h/mL
- Cmax ([2]; intravenous, Paclitaxel Cmax, day 15, 50 mg m^−2 paclitaxel+400 mg pazopanib+1000 mg lapatinib, n=5, geometric mean (95% confidence interval)): 2330 ng/mL
- Cmax ([2]; intravenous, Paclitaxel Cmax, day 15, 50 mg m^−2 paclitaxel+800 mg pazopanib+1000 mg lapatinib, n=3, median (range)): 1720 ng/mL
- Cmax ([2]; intravenous, Paclitaxel Cmax, day 15, 80 mg m^−2 paclitaxel+800 mg pazopanib+1000 mg lapatinib, n=1, individual value): 2710 ng/mL

Molecule: 5-((4-((2,3-dimethyl-2H-indazol-6-yl)methylamino]-2-pyrimidinyl)amino)-2-methyl-benzenesulfonamide [pazopanib]
- Inhibition of CYP2C8 (classification) (CYP2C8): weak inhibitors
- Recommended phase II dosing [1]: 800 mg
- Pazopanib AUC(0–24) [2, 6]: 633 (279, 1436) μg*hr ml^−1
- Pazopanib Cmax [2, 6]: 31.7 (14.6, 68.8) μg ml^−1
- Pazopanib AUC(0–24) [2, 7]: 960 (736, 1620) μg*hr ml^−1
- Pazopanib Cmax [2, 7]: 48.9 (40.7, 80.9) μg ml^−1
- Pazopanib AUC(0–24) [2, 4]: 646 (432, 967) μg*hr ml^−1
- Pazopanib Cmax [2, 4]: 32 (21.9, 46.9) μg ml^−1
- Pazopanib AUC(0–24) [2, 8]: 1027 µg·h/mL
- Pazopanib Cmax [2, 8]: 57.4 µg/mL
- Change in mean AUC0–24 of pazopanib with a two-fold increase in pazopanib dose ([2]; pazopanib 400–800 mg per day): less than two-fold increase
- Change in mean Cmax of pazopanib with a two-fold increase in pazopanib dose ([2]; pazopanib 400–800 mg per day): less than two-fold increase
